According to patent publication US5821046A, “RNA oligonucleotides that bind HIV tat protein” (RiboTargets Holdings PLC, priority 1990, dated 1998):
Where two headings read alike, the source gives them in different places.

What was measured:
tat protein = assay: competition filter binding assay, bulge and stem mutant TAR RNAs (FIGS. 10-17, Tables 2 and 3); design: species or system HIV-1; conditions: 20 nM TAR RNA, read-out: D1/2
Excerpt: The graphs shown in FIGS. 10 to 17 illustrate competition for tat binding between TAR RNA and various mutant TAR RNA sequences. In FIGS. 10 and 11 the region unpaired residues at positions 23, 24, 25, 23 being U, is shown to be essential for tat FIGS. 12, 13, 14, 15, 16 and 17 the base stem immediately adjacent to the U-rich bulge be required for efficient tat binding, with there being a requirement for a binding pair at residues 22 and 40 on one side of the bulge, and the base pair G26 - C39 on the other side of the bulge.
In Tables 2 and 3, D1/2 values for various mutant TAR RNA-L sequences are given along with the results of transactivation experiments in which the altered TAR RNA sequences were introduced into the CAT reporter plasmid D5-3-3. TAR RNA sequences which bind poorly are poor competitors and show increased values for D1/2.
Competitor RNA was produced by transcription as described in the method ---or FIG. 7. Binding reactions (500ul) contained 20 nM TAR RNA, 20,000 dpm ^32 P- labeled TAR RNA, 0.5 ug calf thymus DNA, 0.2 ug yeast tRNA, 40 Units RNAsin (Promega), 50 mM Tris-HCl pH7.5, 20 mM KCl in a final volume of 500 ul. […] The binding reaction mixtures were then filtered through pre-washed nitrocellulose filters (Millipore 0.45 u pore size) and the radioactivity retained on the filters assayed by liquid scintillation counting of the dried filters.

[1] = test system: transactivation by tat (CAT reporter plasmid D5-3-3); assay: transactivation in vivo, altered TAR sequences in CAT reporter plasmid D5-3-3 (Tables 2 and 3); type: cell-based
Procedure: (§1) The TAR sequences depicted in FIG. 3 [SEQ ID NO: 1-11] were introduced into a test plasmid, pD5-3-3, which carries a LTR and approximately 300 bases of 5' flanking sequences derived from the infectious proviral clone NL4 (29). The bacterial chloramphenicol acetyltransferase (CAT) gene and SV40 intron and terminator sequence from pSV2-CAT (30) was inserted downstream of TAR by cloning into the HindIII site at +77. Trans-activation was measured either by cotransfection of HeLa cells with the test plasmids and the tat expression plasmid pC63-4-1 (6) (panels a-d in FIG. 10), or by transfection of the test plasmids alone into HeLa/C63/tat (clone 9) cells (panels e-h).
In these experiments, cells were plated at a density of 3×10^5 in a T25 flask and transfected by the calcium phosphate method (31). […] To ensure that CAT activity was measured in the linear range of the assay (30), at less than 50% conversion of chloramphenicol in its acetylated forms, for each transfection, three different aliquots containing from 5 to 70 ul extract were assayed for CAT activity. […] Reaction products were extracted with ethylacetate, separated by thin layer chromatography on silica plates and bands were counted in scintillation fluid to calculate the chloramphenicol conversion efficiency per 10 ul of extract. […]

[2] = test system: tat-dependent promoter activity of viral LTR carrying the TAR sequence; assay: trans-activation CAT assay, HeLa cells cotransfected with LTR-CAT test plasmid and tat expression plasmid; type: cell-based; conditions: HeLa cells cotransfected with tat plasmid
Excerpt: If tat binding to TAR is necessary for trans-activation, then viral LTRs carrying TAR sequences with low affinities for tat should always have reduced tat-dependent promoter activity in vivo. Site-directed mutagenesis experiments on TAR have shown that trans-activation requires sequences in both the U-rich bulge (10, 11) and the loop sequence (12, 27, 28). These observations have now been extended, using TAR mutations with known affinities for tat in transfection experiments, the results of which are shown in FIG. 8. The experiments used either HeLa cells (FIG. 8a-d) or a constitutive producer of tat, HeLa/C63/tat cells (FIG. 8e-f).
as §1, with “e-h). […]” for “e-h).”

[3] = Table 2, mutations in the U-rich bulge
[4] = Table 3, mutations in the stem surrounding the U-rich bulge

| Substance | IC50 (tat protein; [3]) [nM] | IC50 (tat protein; [4]) [nM] | Units CAT activity/500 ng plasmid [1, 3] | Units CAT activity/500 ng plasmid [1, 4] | trans-activation phenotype [2] |
| --- | --- | --- | --- | --- | --- |
| HIV-1 TAR (UUU): full length HIV-1 TAR RNA of 59 residues prepared by transcription, wild type, UUU bulge (GGGUCUCUCUGGUUAGACCAGAUUUGAGCCUGGGAGCUCUCUGGCUAACUAGGGAACCC; unmodified RNA) [reference compound] | 90 | 90 | 14,400 Units CAT activity/500 ng plas | 5,600 Units CAT activity/500 ng plas |  |
| G28 to C28: TAR point mutation expected to disrupt the top of the TAR stem/loop structure (GGGUCUCUCUGGUUAGACCAGAUUUGACCCUGGGAGCUCUCUGGCUAACUAGGGAACCC; chemistry not given here) |  |  |  |  | defective phenotype |
